# Laboratory results taken from patent US5962415A, “Compositions comprising a peptide inhibitor of nuclear protein translocation and an immunosuppressant and methods of use thereof” (Bristol-Myers Squibb Co., priority 1998, dated 1999).
# How the values were obtained:
# [1] = test system: Splenic T-cells from BALB/c mice; assay: Mouse splenic T-cell proliferation ([3H]-thymidine); assay type: cell-based; conditions: 0.5 or 2.0 μM, FIG. 16
# Description: Splenic T-cells from BALB/c mice were isolated by glass wool chromatography and treated with either 0.5 or 2.0 μM peptide in 96 well plates for 2 hours followed by activation with either anti-CD3 alone ([…]), PMA alone (1 ng/ml), anti-CD3 plus anti-CD28 ([…] each) or anti-CD28 plus PMA ([…] and 1 ng/ml, respectively). Plates were coated with antibody 24 hours prior to activation. Proliferation was determined after 72 hours by pulsing for 8 hours with [^3 H]-thymidine, and determining radioactivity incorporated into DNA.
# CD14 = assay: LPS binding to CD14 (plate assay with soluble CD14 Ig); conditions: E. coli AO16 LPS, 2 hours at 4° C., FIG. 14
# Description: 96-well plates were coated with goat-anti human Ig, soluble CD-1 4 Ig was added, and the plates were incubated overnight at 4° C. The BMS polypeptide, the C-MYCMEM polypeptide, an SV40 NLS polypeptide containing a single SV40 large T-antigen NLS, a c-myc NLS without a translocation sequence (AKRVKL (SEQ ID NO:6)), a control non-NLS polypeptide, 377G, or PBS, were added to the plates and the plates were incubated for 5 min. E. coli AO16 LPS was then added to the plates and the plates were incubated for 2 hours at 4° C. The plates were washed and LPS was detected using 0.5 μg/ml mouse anti-E. coli LPS, followed by goat anti-mouse horseradish peroxidase.
# [2] = test system: BALB/c mice immunized with KLH; assay: Anti-hemocyanin (KLH) response in mice; assay type: in vivo; conditions: 5 mg/kg day 0 plus 5 doses every other day, serum day 14, FIG. 12
# Description: Female BALB/c mice (8 weeks of age) were immunized by intraperitoneal injection of 25 μg keyhole limpet (Megathura crenulata) hemocyanin ("KLH") (Pacific Bio-Marine Laboratories, Venice, Calif.) without adjuvant on day 0. Mice were divided into groups of five and inhibitory peptides C-MYCMEM and BMS-205820 ([…] (SEQ ID NO:24)), which is identical to the SV40MEM polypeptide with the exception that the polypeptide lacks the C-terminal cysteine, were administered on day 0 at 5 mg/kg, followed by 5 subsequent doses of the same concentration every other day. Control mice were treated with a single 200-μg dose of Chimeric L6 antibody ("Chi L6"). After 14 days, the mice were bled from the orbital sinus and the level of anti-KLH antibodies were measured in the serum by ELISA as described in Example 11.
# [3] = test system: 70Z/3 murine leukemia pre-B cells; assay: LPS-stimulated surface antigen expression (κ Ig light chain, IL-2 receptor, CD45) in 70Z/3 cells; assay type: cell-based; conditions: dose-response data, FIG. 1B
# Description: Expression of κ Ig, CD45, CD40, and the interleukin-2 receptor was assayed using standard enzyme-linked immunosorbent assays ("ELISAs") (see, Coligan et al. (eds.) (1991) Current Protocols in Immunology, Wiley & Sons, p. 2.10 or by FACS staining to measure cell-surface markers as described in Raff (1970) Immunology 19:637). Antibodies form cell surface markers were obtained from Pharmingen Co.
# The effect of the SV40MEM polypeptide was compared with two additional polypeptides, […] (SEQ ID NO:2) (the "HIV-1MEM" polypeptide), which is composed of the membrane translocation domain of FGF flanked by the NLS from the HIV-1 matrix protein and […] (SEQ ID NO:3) (the "C-MYCMEM" polypeptide), which contains the NLS from the human c-myc oncoprotein (Chelsky et al. (1989), supra, and Dang et al. (1988), supra) using murine 70Z/3 pre-B cells.
# Murine 70Z/3 cells (ATCC TlD-158) are a model cell line for analyzing the effects of compounds on B-cell differentiation. In response to S. typhosa LPS (Difco) or γ-interferon, these cells differentiate from surface κ immunoglobulin negative to κ Ig positive.
# […] of: (1) a peptide containing only the FGF signal sequence AAVALLPAVLLALLAP (SEQ ID NO:4) (the "MEM" peptide); (2) a polypeptide having the FGF signal sequence and the NLS of NF-κB p50 on the carboxy terminus of the signal sequence, namely, the NF-κBMEM polypeptide; (3) the SV40MEM polypeptide comprised of L-amino acids; or (4) the SV40MEM polypeptide comprised of D-amino acids. The cells were then incubated with LPS as described in Example 2 and assayed for expression of κ light chain expression.
sequence,measurement,setting,value
"AKRVKLAAVALLPAVLLALLAKRVKLC [C-MYCMEM, contains the NLS from the human c-myc oncoprotein]",T cell proliferation,"[1]; stimulated with PMA + anti-CD28, 2 hours pretreatment",inhibited
same,T cell proliferation,"[1]; stimulated with anti-CD3 + anti-CD28, 2 hours pretreatment",augmentation of proliferation
same,binding of LPS to CD14,CD14,block it from binding CD14
same,specific anti-KLH response,[2],inhibited
same,efficacy at inhibiting κ Ig light chain production (comparison of three polypeptides),[3],approximately equally efficacious
same,potency at inhibiting κ Ig light chain production compared with SV40MEM,[3],not as potent
